Assay results published in patent US20240317777A1, “NOVEL MACROCYCLIC AMINOPYRAZOLE COMPOUNDS AS CDK2 INHIBITORS” (Accutar Biotechnology Inc., priority 2023, published 2024).
Where two headings read alike, the source gives them in different places.

How the values were obtained:
[1] = target: CDK1-CYCLIN B (Homo sapiens, UniProt P06493); assay: CDK protein kinase inhibition by ADP-Glo assay, CDK1-CYCLIN B; format: biochemical; details: for IC50: ADP-Glo, 1000 μM ATP, read-out: CDK1-CYCLINB, IC50; for CDK2 Fold selectivity, CDK1: CDK2 versus CDK1
Chain of CDK1-CYCLIN B (P06493 whole entry): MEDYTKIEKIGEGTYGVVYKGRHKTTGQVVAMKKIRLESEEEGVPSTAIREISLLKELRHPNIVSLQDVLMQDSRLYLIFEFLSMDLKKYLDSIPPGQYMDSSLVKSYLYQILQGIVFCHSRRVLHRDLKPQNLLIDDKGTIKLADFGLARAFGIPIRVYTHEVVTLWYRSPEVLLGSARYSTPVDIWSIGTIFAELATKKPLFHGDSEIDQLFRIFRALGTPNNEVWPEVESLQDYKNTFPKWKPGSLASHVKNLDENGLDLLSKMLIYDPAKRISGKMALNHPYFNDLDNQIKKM
Chain of CDK1-CYCLIN B (P14635 whole entry partner): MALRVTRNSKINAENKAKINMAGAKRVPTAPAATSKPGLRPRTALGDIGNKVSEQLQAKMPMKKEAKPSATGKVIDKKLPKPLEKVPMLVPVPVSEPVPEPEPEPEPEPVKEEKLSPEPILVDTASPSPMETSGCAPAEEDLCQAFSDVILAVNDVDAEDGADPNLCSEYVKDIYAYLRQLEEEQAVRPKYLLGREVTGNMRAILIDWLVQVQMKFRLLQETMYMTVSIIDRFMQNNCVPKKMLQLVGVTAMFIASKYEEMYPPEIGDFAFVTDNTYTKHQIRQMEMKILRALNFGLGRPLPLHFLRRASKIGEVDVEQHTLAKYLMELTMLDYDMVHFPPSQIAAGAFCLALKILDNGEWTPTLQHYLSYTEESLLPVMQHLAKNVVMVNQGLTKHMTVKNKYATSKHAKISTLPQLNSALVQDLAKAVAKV
Method in brief: (§1)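 Enzyme reactions contain 1000 μM ATP and 5 mM MgCl2 in HEPES pH 7.5 with BSA, Triton X-100, DTT, orthovanadate and beta-glycerophosphate. They proceed at 22° C before ADP-Glo luminescent detection of ADP produced.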

[2] = target: CDK2-CYCLIN E1 (Homo sapiens, UniProt P24941); assay: CDK protein kinase inhibition by ADP-Glo assay, CDK2-CYCLIN E1; format: biochemical; details: ADP-Glo, 1000 μM ATP, read-out: CDK2-CYCLINE, IC50
Method in brief: as §1

[3] = target: CDK4-CYCLIN D1 (Homo sapiens, UniProt P11802); assay: CDK protein kinase inhibition by ADP-Glo assay, CDK4-CYCLIN D1; format: biochemical; details: for IC50: ADP-Glo, 1000 μM ATP, read-out: CDK4-CYCLIND1, IC50; for CDK2 Fold selectivity, CDK4: CDK2 versus CDK4
Chain of CDK4-CYCLIN D1 (P11802 whole entry): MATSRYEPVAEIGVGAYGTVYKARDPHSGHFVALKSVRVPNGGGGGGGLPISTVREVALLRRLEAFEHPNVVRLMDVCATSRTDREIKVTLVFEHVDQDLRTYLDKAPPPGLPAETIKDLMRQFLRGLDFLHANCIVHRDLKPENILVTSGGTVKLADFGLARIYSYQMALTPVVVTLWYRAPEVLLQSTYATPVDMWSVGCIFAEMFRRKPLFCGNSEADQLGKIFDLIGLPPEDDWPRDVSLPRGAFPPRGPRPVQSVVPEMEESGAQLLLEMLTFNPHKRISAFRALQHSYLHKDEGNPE
Chain of CDK4-CYCLIN D1 (P24385 whole entry partner): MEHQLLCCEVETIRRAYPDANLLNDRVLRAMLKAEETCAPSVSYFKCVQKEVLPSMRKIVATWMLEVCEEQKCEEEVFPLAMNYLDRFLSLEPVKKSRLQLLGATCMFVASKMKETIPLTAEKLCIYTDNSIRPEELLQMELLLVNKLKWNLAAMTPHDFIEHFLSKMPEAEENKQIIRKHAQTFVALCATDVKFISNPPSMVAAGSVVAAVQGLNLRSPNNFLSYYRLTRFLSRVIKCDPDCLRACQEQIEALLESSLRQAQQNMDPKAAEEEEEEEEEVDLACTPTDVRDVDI
Method in brief: as §1

[4] = target: CDK6-CYCLIN D3 (Homo sapiens, UniProt Q00534); assay: CDK protein kinase inhibition by ADP-Glo assay, CDK6-CYCLIN D3; format: biochemical; details: for IC50: ADP-Glo, 1000 μM ATP, read-out: CDK6-CYCLIND3, IC50; for CDK2 Fold selectivity, CDK6: CDK2 versus CDK6
Chain of CDK6-CYCLIN D3 (Q00534 whole entry): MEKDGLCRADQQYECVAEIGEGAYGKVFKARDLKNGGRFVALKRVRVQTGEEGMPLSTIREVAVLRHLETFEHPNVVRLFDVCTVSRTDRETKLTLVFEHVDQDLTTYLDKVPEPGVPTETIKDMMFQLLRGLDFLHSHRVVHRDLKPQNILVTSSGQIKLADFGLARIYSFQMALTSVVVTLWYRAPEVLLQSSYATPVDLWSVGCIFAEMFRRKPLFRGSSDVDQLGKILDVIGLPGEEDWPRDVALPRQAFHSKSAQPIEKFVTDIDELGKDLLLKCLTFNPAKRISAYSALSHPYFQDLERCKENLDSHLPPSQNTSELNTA
Chain of CDK6-CYCLIN D3 (P30281 whole entry partner): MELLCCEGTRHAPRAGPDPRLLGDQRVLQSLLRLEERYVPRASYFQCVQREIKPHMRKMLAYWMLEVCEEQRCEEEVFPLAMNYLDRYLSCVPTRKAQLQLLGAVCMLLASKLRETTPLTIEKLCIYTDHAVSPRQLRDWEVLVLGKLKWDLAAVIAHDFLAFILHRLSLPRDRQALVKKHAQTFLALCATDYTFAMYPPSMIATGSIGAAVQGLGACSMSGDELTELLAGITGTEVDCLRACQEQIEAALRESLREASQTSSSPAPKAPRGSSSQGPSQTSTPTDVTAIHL
Method in brief: as §1

[5] = target: CDK9-CYCLIN T1 (Homo sapiens, UniProt P50750); assay: CDK protein kinase inhibition by ADP-Glo assay, CDK9-CYCLIN T1; format: biochemical; details: for IC50: ADP-Glo, 1000 μM ATP, read-out: CDK9-CYCLINT1, IC50; for CDK2 Fold selectivity, CDK9: CDK2 versus CDK9
Chain of CDK9-CYCLIN T1 (P50750 whole entry): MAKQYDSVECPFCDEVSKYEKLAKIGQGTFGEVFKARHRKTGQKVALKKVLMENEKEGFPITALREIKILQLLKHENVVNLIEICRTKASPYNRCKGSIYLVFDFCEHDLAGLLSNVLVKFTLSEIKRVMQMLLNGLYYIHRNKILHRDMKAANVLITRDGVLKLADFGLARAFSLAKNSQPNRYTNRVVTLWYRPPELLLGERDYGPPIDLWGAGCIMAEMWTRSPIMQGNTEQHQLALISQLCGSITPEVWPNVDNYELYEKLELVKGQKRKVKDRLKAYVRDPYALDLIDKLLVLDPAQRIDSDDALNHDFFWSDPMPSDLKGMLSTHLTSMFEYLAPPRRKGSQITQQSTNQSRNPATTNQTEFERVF
Chain of CDK9-CYCLIN T1 (O60563 whole entry partner): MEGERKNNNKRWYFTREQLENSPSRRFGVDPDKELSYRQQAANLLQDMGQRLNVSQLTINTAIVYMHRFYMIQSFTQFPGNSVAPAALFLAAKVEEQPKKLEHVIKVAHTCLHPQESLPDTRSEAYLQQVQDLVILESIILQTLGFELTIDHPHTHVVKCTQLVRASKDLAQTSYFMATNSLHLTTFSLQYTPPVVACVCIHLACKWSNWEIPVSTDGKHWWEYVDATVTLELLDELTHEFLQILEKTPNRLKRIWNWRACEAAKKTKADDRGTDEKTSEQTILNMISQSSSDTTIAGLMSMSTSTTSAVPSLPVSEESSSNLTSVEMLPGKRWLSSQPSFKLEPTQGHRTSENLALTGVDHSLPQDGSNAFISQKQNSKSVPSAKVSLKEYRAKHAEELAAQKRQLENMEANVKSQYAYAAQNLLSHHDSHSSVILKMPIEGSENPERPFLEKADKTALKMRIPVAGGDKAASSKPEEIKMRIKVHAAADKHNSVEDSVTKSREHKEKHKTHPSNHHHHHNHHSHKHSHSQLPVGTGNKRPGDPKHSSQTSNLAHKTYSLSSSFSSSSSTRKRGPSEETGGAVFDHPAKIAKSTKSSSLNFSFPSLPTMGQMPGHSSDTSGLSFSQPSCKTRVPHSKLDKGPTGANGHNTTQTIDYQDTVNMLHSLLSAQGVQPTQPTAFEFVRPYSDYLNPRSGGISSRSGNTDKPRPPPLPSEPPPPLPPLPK
Method in brief: as §1

[6] = test system: Phospho-Rb (Ser807/811) in OVCAR3 cells; assay: Phospho-Rb expression inhibition in OVCAR3 cells quantified by In Cell Western; format: cell-based; details: Homo sapiens, OVCAR-3, 24 hours, read-out: OVCAR-3 pRb IC50
Method in brief: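 In-cell western: after 24 h compound exposure at 37° C, fixed OVCAR3 cells co-stained for pRb Ser807/811 (800 nm channel) and total Rb (680 nm channel), imaged by LI-COR Odyssey.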

[7] = test system: CCNE1-amplified OVCAR3 cells; assay: Cell growth inhibition of CCNE1-amplified OVCAR3 cells (CellTiter-Glo); format: cell-based; details: Homo sapiens, OVCAR-3, 144 h, 6 days
Method in brief: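 Growth read-out was CellTiter-Glo luminescence, taken after 10 min at room temperature at the end of a 6-day compound exposure at 37 °C. Compounds were diluted from DMSO stocks across various concentrations.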

[8] = test system: CCNE1-normal SKOV3 cells; assay: Cell growth inhibition of CCNE1-normal SKOV3 cells (CellTiter-Glo); format: cell-based; details: Homo sapiens, SK-OV-3, 144 h, 6 days
Method in brief: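 Growth was measured by CellTiter-Glo luminescence after 6 days' compound exposure at 37 °C. Cells were plated one day before dosing at 1000 per well in medium with 10% FBS, and compounds were diluted from DMSO stocks.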

Row | IC50 ([1]; Table 13) | CDK2 Fold selectivity, CDK1 ([1]; Table 14) | IC50 ([2]; Table 13) | IC50 ([3]; Table 13) | CDK2 Fold selectivity, CDK4 ([3]; Table 14) | IC50 ([4]; Table 13) | CDK2 Fold selectivity, CDK6 ([4]; Table 14) | IC50 ([5]; Table 13) | CDK2 Fold selectivity, CDK9 ([5]; Table 14) | IC50 [6] | IC50 [7] | Structure (SMILES) | IC50 [8] | further results
1 | 0.01 to 0.05 µM | D (D, >20 and ≤50) | ≤ 0.01 µM | 0.1 to 0.5 µM | C (C, >50 and ≤100) | 0.01 to 0.05 µM | E (E, <20) | 0.1 to 0.5 µM | C (C, >50 and ≤100) | 0.002 to 0.01 µM | 0.01 to 0.05 µM | C[C@H]1CCCOc2cncc(c2)Nc2cc(n[nH]2)[C@H]2CC[C@H](C2)OC(=O)N1 [Compound 119, (1^1S,1^3R,9S,Z)-9-methyl-2^1H-5,12-dioxa-3,10-diaza-4(3,5)-pyridina-2(3,5)-pyrazola-1(1,3)-cyclopentanacyclododecaphan-11-one] | > 1.25 µM | –
2 | 0.01 to 0.05 µM | E (E, <20) | ≤ 0.01 µM | 0.05 to 0.1 µM | C (C, >50 and ≤100) | 0.01 to 0.05 µM | E (E, <20) | 0.05 to 0.1 µM | C (C, >50 and ≤100) | 0.002 to 0.01 µM | 0.01 to 0.05 µM | C[C@@H]1CCCOc2cncc(c2)Nc2cc(n[nH]2)[C@H]2CC[C@H](C2)OC(=O)N1 [Compound 120, (1^1S,1^3R,9R,Z)-9-methyl-2^1H-5,12-dioxa-3,10-diaza-4(3,5)-pyridina-2(3,5)-pyrazola-1(1,3)-cyclopentanacyclododecaphan-11-one] | > 1.25 µM | –
3 | 0.1 to 0.5 µM | D (D, >20 and ≤50) | ≤ 0.01 µM | > 0.5 µM | B (B, >100 and ≤500) | 0.1 to 0.5 µM | C (C, >50 and ≤100) | 0.1 to 0.5 µM | B (B, >100 and ≤500) | 0.01 to 0.05 µM | 0.05 to 0.25 µM | C[C@@H]1CCCNC(=O)O[C@@H]2CC[C@@H](C2)c2cc([nH]n2)Nc2cncc(c2)O1 [Compound 121, (1^1S,1^3R,6R,Z)-6-methyl-2^1H-5,12-dioxa-3,10-diaza-4(3,5)-pyridina-2(3,5)-pyrazola-1(1,3)-cyclopentanacyclododecaphan-11-one] | > 1.25 µM | –
4 | – | – | – | – | – | – | – | – | – | 0.002 to 0.01 µM | 0.01 to 0.05 µM | C[C@H]1CC/C=C/c2cc(ccn2)Nc2cc(n[nH]2)[C@H]2CC[C@H](C2)OC(=O)N1 [Compound 125, (1^1S,1^3R,2^4Z,5E,9S)-9-methyl-2^1H-12-oxa-3,10-diaza-4(4,2)-pyridina-2(3,5)-pyrazola-1(1,3)-cyclopentanacyclododecaphan-5-en-11-one] | 0.25 to 1.25 µM | IC50 ([1]; Table 19): 0.1 to 0.5 µM; CDK2 Fold selectivity, CDK1 ([1]; Table 20): E (E, <20); IC50 ([2]; Table 19): ≤ 0.01 µM; IC50 ([3]; Table 19): 0.1 to 0.5 µM; CDK2 Fold selectivity, CDK4 ([3]; Table 20): E (E, <20); IC50 ([4]; Table 19): 0.1 to 0.5 µM; CDK2 Fold selectivity, CDK6 ([4]; Table 20): D (D, >20 and ≤50); IC50 ([5]; Table 19): 0.1 to 0.5 µM; CDK2 Fold selectivity, CDK9 ([5]; Table 20): D (D, >20 and ≤50)
